US20260048068A1, “PHENYLUREA DERIVATIVES AND THEIR PHARMACEUTICAL USES” (HANGZHOU BIO-SINCERITY PHARMA-TECH CO., LTD., priority 2022, published 2026)

How the values were obtained:
[1] = target: histamine H3 receptor (Homo sapiens, UniProt Q9Y5N1); test: FLPPR assay, antagonistic activity at histamine H3 receptor; type: cell-based; details: for inhibition at 0.005 µM: 5 nM compound, read-out: % Inh-AVERAGE @ 5 nM; for inhibition at 0.05 µM: 50 nM compound, read-out: % Inh-AVERAGE @ 50 nM
Procedure: The FLPPR assay (NIH Assay Guidance Manual: HTS Assay Validation-Section 4.3. Analysis (Potency), htpps://www.ncbi.nlm.nih.gov/books/NBK83783) was performed using SUVN-G3031 as the positive control, and 13 target compounds were tested for the antagonistic activity target to histamine H3 receptor.

[2] = system: CCI model rats; test: Chronic constriction injury (CCI) neuropathic pain model, mechanical withdrawal threshold; type: in vivo; details: CCI SD rats; for Mechanical pain (withdrawal) threshold vs model group: single dose, 0.5-6 h
Text: Exposing the sciatic nerve on male SD rats' (180-200 g) right hind leg, in the anterior segment where the sciatic nerve is about to bifurcate, use sterile chromic gut thread (No. 4, 0.15 mm in diameter) to ligate 4 loops loosely, with each loop 1-2 mm apart, and suture the muscle and skin to establish the chronic constriction injury (CCI) model. In the sham-operated group, only the sciatic nerve is exposed without ligation, and the muscle and skin are sutured. The mechanical withdrawal threshold is detected by electronic analgesia meter (IITC-2391) on the 7th day for 2 consecutive days.
The CCI model rats with stabilized mechanical withdrawal thresholds were randomly divided into three groups, named model group (model), pregabalin group (Pre, 30 mg/kg), BIOS-A-3 compound group (1 mg/kg), and were administered at 1 mL/100 g by gavage, and the same column of saline was gavaged in Sham and model group. The basic value was determined before drug administration, and the mechanical withdrawal thresholds were detected at 0.5 h, 1 h, 2 h, 4 h and 6 h after a single drug administration, and the p value was calculated by ANOVA with T-test.

[3] = target: hERG channel (Homo sapiens, UniProt Q12809); test: in vitro
Text: In cardiomyocytes, inhibition of the delayed rectifier potassium current (IKr) channel protein encoded by the human Ether-a-go-go Related Gene (hERG) is the most importane mechanism by which drugs lead to prolongation of the QT interval. hERG is characterized by a specific molecular structure, which allows it to be inhibited by different structures, leading to severe arrhythmias. Statistically, 25-40% of lead compounds show varying degrees of hERG-related toxicity. early evaluation of the effects of compounds on hERG is crucial in the drug development process. The inhibition rate of compounds on hERG channels is examined by manual membrane clamp technique on HEK293 cell line whichi stably ecpressing hERG ion channels.

[4] = Average inhibition rate (%) on hERG channel
[5] = Inhibition rate on hERG channel

Chain of hERG channel (Q12809 whole entry): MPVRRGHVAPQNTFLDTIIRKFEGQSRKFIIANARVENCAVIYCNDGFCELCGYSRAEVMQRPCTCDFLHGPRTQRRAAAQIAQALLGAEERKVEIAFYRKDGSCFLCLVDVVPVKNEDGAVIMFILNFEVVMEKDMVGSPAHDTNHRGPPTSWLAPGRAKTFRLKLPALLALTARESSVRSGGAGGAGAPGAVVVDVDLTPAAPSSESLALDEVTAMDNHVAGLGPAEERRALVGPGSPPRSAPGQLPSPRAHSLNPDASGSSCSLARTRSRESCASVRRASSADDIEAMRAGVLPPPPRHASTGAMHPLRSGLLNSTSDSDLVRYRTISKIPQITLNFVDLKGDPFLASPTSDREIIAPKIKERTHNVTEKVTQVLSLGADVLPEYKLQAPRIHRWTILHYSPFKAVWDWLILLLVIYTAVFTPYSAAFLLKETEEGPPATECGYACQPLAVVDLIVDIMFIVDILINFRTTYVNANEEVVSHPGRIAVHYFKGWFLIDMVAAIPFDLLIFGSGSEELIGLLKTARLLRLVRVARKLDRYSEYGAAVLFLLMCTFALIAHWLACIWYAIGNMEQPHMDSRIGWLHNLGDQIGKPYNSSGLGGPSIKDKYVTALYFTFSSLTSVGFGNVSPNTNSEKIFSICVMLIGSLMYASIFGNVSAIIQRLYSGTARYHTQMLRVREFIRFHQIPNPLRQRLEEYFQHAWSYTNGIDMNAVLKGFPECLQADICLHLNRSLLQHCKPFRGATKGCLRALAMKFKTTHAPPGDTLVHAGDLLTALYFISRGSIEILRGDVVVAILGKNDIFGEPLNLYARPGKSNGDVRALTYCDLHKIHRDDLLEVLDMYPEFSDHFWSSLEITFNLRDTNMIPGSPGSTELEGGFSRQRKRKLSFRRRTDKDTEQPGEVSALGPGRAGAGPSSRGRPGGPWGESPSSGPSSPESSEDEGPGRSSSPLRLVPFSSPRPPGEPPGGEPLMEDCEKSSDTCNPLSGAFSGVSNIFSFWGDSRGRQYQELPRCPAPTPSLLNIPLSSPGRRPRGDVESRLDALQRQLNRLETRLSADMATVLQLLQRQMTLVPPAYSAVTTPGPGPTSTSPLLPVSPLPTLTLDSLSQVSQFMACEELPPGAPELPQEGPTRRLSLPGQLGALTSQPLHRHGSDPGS
Chain of histamine H3 receptor (Q9Y5N1 whole entry, species assumed): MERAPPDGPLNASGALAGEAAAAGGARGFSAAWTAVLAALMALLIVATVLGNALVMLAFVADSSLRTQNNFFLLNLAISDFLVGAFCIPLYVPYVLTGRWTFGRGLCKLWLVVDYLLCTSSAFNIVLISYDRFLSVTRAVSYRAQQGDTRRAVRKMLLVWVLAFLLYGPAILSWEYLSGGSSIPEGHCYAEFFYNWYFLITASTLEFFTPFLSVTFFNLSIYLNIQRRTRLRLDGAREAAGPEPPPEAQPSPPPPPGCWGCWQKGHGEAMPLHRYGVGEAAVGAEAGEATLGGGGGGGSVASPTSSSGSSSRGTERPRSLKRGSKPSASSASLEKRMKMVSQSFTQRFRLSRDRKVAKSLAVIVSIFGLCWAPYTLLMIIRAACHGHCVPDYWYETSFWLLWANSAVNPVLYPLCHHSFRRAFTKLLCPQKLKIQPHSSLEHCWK

| SMILES | inhibition at 0.005 µM [1] [%] | inhibition at 0.05 µM [1] [%] | Mechanical pain (withdrawal) threshold vs model group ([2]; 1 mg/kg by gavage) | Acting time compared with pregabalin ([2]; 1 mg/kg vs pregabalin 30 mg/kg) | inhibition at 10 µM [3, 4] [%] | inhibition at 10 µM [3, 5] [%] | Mechanical pain (withdrawal) threshold vs model group ([2]; 30 mg/kg by gavage) |
| --- | --- | --- | --- | --- | --- | --- | --- |
| O=C(Nc1ccc(OC2CCN(C3CCC3)CC2)cc1)NC1CCCC1 [BIOS-A-1, 1-(4-((1-cyclobutylpiperidin-4-yl)oxy)phenyl)-3-cyclopentylurea] | 77.4 | 99.7 | – | – | – | – | – |
| O=C(NCCN1CCOCC1)Nc1ccc(OC2CCN(C3CCC3)CC2)cc1 [BIOS-A-3, 1-(4-((1-cyclobutylpiperidin-4-yl)oxy)phenyl)-3-(2-morpholinoethyl)urea] | 95.6 | 100 | significantly increased the mechanical tingling threshold of CCI model rats | had a longer acting time | 1.56 | – | – |
| O=C(NCCN1CCCCC1)Nc1ccc(OC2CCN(C3CCC3)CC2)cc1 [BIOS-A-4, 1-(4-((1-cyclobutylpiperidin-4-yl)oxy)phenyl)-3-(2-(piperidin-1-yl)ethyl)urea] | 102 | 98.6 | – | – | 0.96 | – | – |
| O=C(NCCN1CCCC1)Nc1ccc(OC2CCN(C3CCC3)CC2)cc1 [BIOS-A-5, 1-(4-((1-cyclobutylpiperidin-4-yl)oxy)phenyl)-3-(2-(pyrrolidin-1-yl)ethyl)urea] | 101 | 99.7 | – | – | 2.64 | – | – |
| C[C@@H]1CCCN1CCNC(=O)Nc1ccc(OC2CCN(C3CCC3)CC2)cc1 [BIOS-A-6, (R)-1-(4-((1-cyclobutylpiperidin-4-yl)oxy)phenyl)-3-(2-(2-methylpyrrolidin-1-yl)ethyl)urea] | 81.3 | 101 | – | – | – | – | – |
| O=C(NCCN1CCC(F)(F)CC1)Nc1ccc(OC2CCN(C3CCC3)CC2)cc1 [BIOS-A-7, 1-(4-((1-cyclobutylpiperidin-4-yl)oxy)phenyl)-3-(2-(4,4-difluoropiperidin-1-yl)ethyl)urea] | 101 | 100 | – | – | – | – | – |
| O=C(NCCN1CCSCC1)Nc1ccc(OC2CCN(C3CCC3)CC2)cc1 [BIOS-A-8, 1-(4-((1-cyclobutylpiperidin-4-yl)oxy)phenyl)-3-(2-thiomorpholinoethyl)urea] | 100 | 100 | – | – | – | – | – |
| O=C(NCCN1CCC(O)CC1)Nc1ccc(OC2CCN(C3CCC3)CC2)cc1 [BIOS-A-9, 1-(4-((1-cyclobutylpiperidin-4-yl)oxy)phenyl)-3-(2-(4-hydroxypiperidin-1-yl)ethyl)urea] | 101 | 101 | – | – | – | – | – |
| CN1CCN(CCNC(=O)Nc2ccc(OC3CCN(C4CCC4)CC3)cc2)CC1 [BIOS-A-10, 1-(4-((1-cyclobutylpiperidin-4-yl)oxy)phenyl)-3-(2-(4-methylpiperazin-1-yl)ethyl)urea] | 99.7 | 101 | – | – | -2.92 | < 5 | – |
| CC(C)N1CCN(CCNC(=O)Nc2ccc(OC3CCN(C4CCC4)CC3)cc2)CC1 [BIOS-A-11, 1-(4-((1-cyclobutylpiperidin-4-yl)oxy)phenyl)-3-(2-(4-isopropylpiperazin-1-yl)ethyl)urea] | 100 | 100 | – | – | -1.22 | < 5 | – |
| CN1CCCN(CCNC(=O)Nc2ccc(OC3CCN(C4CCC4)CC3)cc2)CC1 [BIOS-A-13, 1-(4-((1-cyclobutylpiperidin-4-yl)oxy)phenyl)-3-(2-(4-methyl-1,4-diazepan-1-yl)ethyl)urea] | 101 | 101 | – | – | -0.54 | – | – |
| O=C(NCCN1CCNCC1)Nc1ccc(OC2CCN(C3CCC3)CC2)cc1 [BIOS-A-14, 1-(4-((1-cyclobutylpiperidin-4-yl)oxy)phenyl)-3-(2-(piperazin-1-yl)ethyl)urea] | 100 | 99.7 | – | – | -0.62 | – | – |
| O=C(NCCN1CCN(C2CCC2)CC1)Nc1ccc(OC2CCN(C3CCC3)CC2)cc1 [BIOS-A-15, 1-(2-(4-cyclobutylpiperazin-1-yl)ethyl)-3-(4-((1-cyclobutylpiperidin-4-yl)oxy)phenyl)urea] | 101 | 99.9 | – | – | -0.55 | – | – |
| CC(C)C[C@H](CN)CC(=O)O [Pregabalin, reference compound] | – | – | – | – | – | – | only increased the mechanical sting threshold of CCI rats at 0.5 h and 1 h after administration |
